Source: patent US6635629B2, “3-nitrogen-6,7-dioxygen steroids and uses related thereto” (Inflazyme Pharmaceuticals Ltd., priority 2000, dated 2003)

These compounds were tested on rat mast cell line (RBL-2H3) (assay: Antigen-induced release of hexosaminidase from a rat mast cell line (RBL-2H3)). Settings: inhibition of DNP-HSA antigen-induced hexosaminidase release; tested at 0.3, 3, 10 and 30 μM; read-out: Hex IC50.
Format: cell-based
Method: The anti-allergic effects of a compound of the present invention was evaluated by measuring its effect on antigen-induced secretion of hexosaminidase from a passively sensitized rat mast cell line. The ability of a test compound to inhibit the release of mast cell granule contents, e.g., histamine and hexosaminidase, is indicative of the anti-allergy and/or anti-asthma activity of the compound. Hexosaminidase is released from the mast cell granule along with histamine and other mediators during antigen challenge. The test is performed as follows.
RBL-2H3 cells are grown in culture and passively sensitized for 1 hour at 37° C. to dinitrophenol (DNP) using anti-human-DNP (IgE). Cells are incubated with test compound for 30 minutes at 37° C. and stimulated with 0.5 μg/ml DNP-HSA (antigen) for 30 minutes. Aliquots of the supernatant are removed and used to measure the amount of hexosaminidase released during challenge with the antigen. […] The effect of each test compound is determined as a percentage of the antigen-induced response (minus background release) obtained in the presence of DMSO alone. These values are used to determine the degrees of inhibition of antigen-induced hexosaminidase release from the cells.

`CC(=O)O.CC=C1CCC2C3C(O)C(O)C4CC(N5CCNCC5)CCC4(C)C3CCC12C` (centres unmarked) [Compound 121] and `CC=C1CCC2C3C(O)C(O)C4CC(NCCO)CCC4(C)C3CCC12C.Cl` (centres unmarked) [Compound 122] are within 1.5-fold of each other in IC50: 14.4 µM for the first, 12.3 µM for the second.

Compared with `CC=C1CCC2C3C(O)C(O)C4CC(NCCCCCO)CCC4(C)C3CCC12C.Cl` (centres unmarked) [Compound 123], `CC=C1CCC2C3C(O)C(O)C4CC(Nc5ccc(O)cc5)CCC4(C)C3CCC12C.Cl` (centres unmarked) [Compound 126] is 1.7-fold lower in IC50: 16.7 µM for the first, 9.7 µM for the second.

Going from `CC=C1CCC2C3C(O)C(O)C4CC(Nc5cccc(C)c5)CCC4(C)C3CCC12C.Cl` (centres unmarked) [Compound 125] to `CC=C1CCC2C3C(O)C(O)C4CC(Nc5ccc(S(N)(=O)=O)cc5)CCC4(C)C3CCC12C.Cl` (centres unmarked) [Compound 127], the IC50 falls from 39.4 µM to 10.1 µM (3.9-fold).

Going from `C=C1CCC2C3C(CC[C@]12C)[C@@]1(C)CC[C@@H](NC(=O)c2ccccc2)CC1[C@@H](O)[C@@H]3O` (some centres unmarked) [Compound 132] to `C=C1CCC2C3C(CC[C@]12C)[C@@]1(C)CC[C@@H](NS(=O)(=O)c2ccccc2)CC1[C@@H](O)[C@@H]3O` (some centres unmarked) [Compound 134], the IC50 rises from 10 µM to 16.7 µM (1.7-fold). The first is the more potent here.

Compared with `Cc1cccc(CNC2CCC3(C)C(C2)C(O)C(O)C2C4=C(CCC23)C(C)(C)CC4)c1.Cl` (centres unmarked) [Compound 140], `COC1C(OC)C2CC(N)CCC2(C)C2CCC3=C(CCC3(C)C)C12.Cl` (centres unmarked) [Compound 148] is 2.9-fold higher in IC50: 10.2 µM for the first, 29.2 µM for the second. The first is the more potent here.

These compounds were tested on sensitized Brown Norway rats (assay: Ovalbumin-induced accumulation of inflammatory cells in lung lavage fluid of sensitized Brown Norway rats). Settings: 1 mg/kg/day for 4 days, p.o., corn oil vehicle; relative to control animals.
Format: in vivo, rat
Method: The ability of a compound to inhibit the allergen-induced accumulation of inflammatory cells such as eosinophils and neutrophils in the lavage fluid obtained from sensitized animals is indicative of that compound's anti-asthma activity. […] The test is conducted as follows.
Male Brown Norway rats are sensitized to ovalbumin by single intraperitoneal injection of 1 mg ovalbumin adsorbed to 100 mg A(OH)3 (alum) in 1 ml sterile saline (saline control rats receive only sterile saline) on day 1, and allowed to sensitize until day 21. […] Rats are challenged with 0.5% ovalbumin in saline generated using a Devillbis nebulizer for 60 min on day 21.
Forty-eight hrs after challenge, animals are sacrificed with an overdose of intraperitoneally-delivered sodium pentobarbitol and the lungs are lavaged with cold 2×7 ml phosphate buffered saline. The recovered lavage fluid is placed on ice. The bronchoalveolar lavage fluid is centrifuged and the supernatant removed. The pellet is resuspended in phosphate buffered saline at 4° C. Cytospins are prepared and stained for differentiation and enumeration of cell types.
Test compound was administered in 300 μl corn oil (Tables 7 and 8) or water (Table 9), which were used as vehicles. Control animals received 300 μl corn oil or water alone, i.e., no drug. […] A negative value in Table 7, 8, or 9 indicates an exacerbation of the effect over the control animal.

Going from `C=C1CCC2C3C(CC[C@]12C)[C@@]1(C)CCC(N)CC1[C@@H](O)[C@@H]3O` (some centres unmarked) [Compound 54] to `C=C1CCC2C3C(CC[C@]12C)[C@@]1(C)CC[C@@H](NC(C)=O)CC1[C@@H](O)[C@@H]3O` (some centres unmarked) [Compound 131], the “% inhibition of eosinophils” value rises from −82% to 16%.

First: CC=C1CCC2C3C(O)C(O)C4CC(NCCNCCO)CCC4(C)C3CCC12C.Cl.Cl (centres unmarked) [Compound 124]
Second: C=C1CCC2C3C(CC[C@]12C)[C@@]1(C)CC[C@@H](NS(=O)(=O)C(C)C)CC1[C@@H](O)[C@@H]3O (some centres unmarked) [Compound 133]
The “% inhibition of eosinophils” value of the first is lower: −55% for the first, −43% for the second.

Compared with `C=C1CCC2C3C(CC[C@]12C)[C@@]1(C)CCC(N)CC1[C@@H](O)[C@@H]3O` (some centres unmarked) [Compound 54], `C=C1CCC2C3C(CC[C@]12C)[C@@]1(C)CC[C@@H](NC(C)=O)CC1[C@@H](O)[C@@H]3O` (some centres unmarked) [Compound 131] is higher in “% inhibition of lymphocytes” value: −7% for the first, 21% for the second.

Going from `CC=C1CCC2C3C(O)C(O)C4CC(NCCNCCO)CCC4(C)C3CCC12C.Cl.Cl` (centres unmarked) [Compound 124] to `C=C1CCC2C3C(CC[C@]12C)[C@@]1(C)CC[C@@H](NS(=O)(=O)C(C)C)CC1[C@@H](O)[C@@H]3O` (some centres unmarked) [Compound 133], the “% inhibition of lymphocytes” value rises from −26% to 28%.

Going from `C=C1CCC2C3C(CC[C@]12C)[C@@]1(C)CCC(N)CC1[C@@H](O)[C@@H]3O` (some centres unmarked) [Compound 54] to `C=C1CCC2C3C(CC[C@]12C)[C@@]1(C)CC[C@@H](NC(C)=O)CC1[C@@H](O)[C@@H]3O` (some centres unmarked) [Compound 131], the “% inhibition of neutrophils” value rises from −19% to 57%.

Going from `CC=C1CCC2C3C(O)C(O)C4CC(NCCNCCO)CCC4(C)C3CCC12C.Cl.Cl` (centres unmarked) [Compound 124] to `C=C1CCC2C3C(CC[C@]12C)[C@@]1(C)CC[C@@H](NS(=O)(=O)C(C)C)CC1[C@@H](O)[C@@H]3O` (some centres unmarked) [Compound 133], the “% inhibition of neutrophils” value rises from −76% to 40%.

The compounds below were run on Jurkat clone E6.1 cells (assay: Antigen-induced (anti-CD3 mAb) calcium flux in Jurkat clone E6.1 cells). Settings: 20 μM; anti-CD3 mAb 4 μg/mL; Fura 2AM.
Format: cell-based
Description: Elevation of cytoplasmic calcium concentration is a common and crucial event which follows the activation of many types of cell surface receptors. Increases in intracellular calcium that occur following agonist activation of inositol lipid hydrolysis are the results of calcium release from the endoplasmic reticulum and the influx of calcium through the plasma membrane. Increases in cytosolic calcium concentration are involved in many important cellular responses in the inflammatory process including adhesion, motility, gene expression, proliferation, and degranulation. Changes in intracellular calcium centrations can affect both short and long term cellular responses. An assay method to evaluate a test compound's impact on calcium flux is provided as follows.
The resulting supernatants are discarded and each pellet is washed in 10 mL HBSS. Cell suspensions are accumulated and centrifuged for 5 minutes at 900 RPM to form a cell pellet. The resulting supernatant is discarded and the pellet is resuspended in HBSS at 1×10^7 cells/mL. The cell suspension is transferred to a 20 mm petri dish and incubated at 37° C., 5% CO2 for 20 minutes.
One volume of Fura 2AM is mixed to one volume of detergent Pluronic F127. Cells are labeled with 4 μL of probe solution to each mL of cell suspension. The petri dish is wrapped in aluminum foil to protect from light and placed on a plate shaker for 30 minutes at room temperature.
The following steps are done in the laminar flow hood with the fluorescent lights turned off. The petri dish is removed from the shaker and the labeled cell suspension is transferred to a 15 mL conical tube and washed twice with HBSS as above. The cell pellet is resuspended in 12 mL HBSS and left wrapped in foil for 30 minutes at room temperature. The labeled cell suspension is aliquoted (100 μL/well) into a Dynex 96 well white opaque tissue culture plate. […] Selected compounds were tested for dose related activity. Test samples and activator (anti—CD3 mAb at final concentration of 4 μg/mL, PharMingen) are added manually (50 μL), such that the minimum time to acquire the first data point after stimulation is approximately 30 seconds. The calcium influx response to anti-CD3 mAb is measured as an “end point” assay. The entire plate is read in 100 seconds using a kinetic of 1 second per well.
The plate is read before the addition of anti-CD3 to monitor non-specific effect of samples/drugs. Fluorescence emission is measured at 510 nm with excitation alternating between 340 and 380 every second using an excitation/emission filter pair. Data from these dual wavelengths are represented as a ratio of 2 excitations wavelengths. This ratio is independent of intracellular dye and cell concentrations, enabling real comparison between experiments.

Compared with `C=C1CCC2C3C(CC[C@]12C)[C@@]1(C)CCC(N)CC1[C@@H](O)[C@@H]3O` (some centres unmarked) [Compound 54], `C=C1CCC2C3C(CC[C@]12C)[C@@]1(C)CC[C@@H](NC(=O)c2ccccc2)CC1[C@@H](O)[C@@H]3O` (some centres unmarked) [Compound 132] is lower in “Calcium (% inhibition at 20 μM)” value: 19.8% for the first, 19.6% for the second.

Compared with `C=C1CCC2C3C(O)C(O)C4CC(NCc5ccccc5F)CCC4(C)C3CCC12C.CC(=O)O` (centres unmarked) [Compound 101], `C=C1CCC2C3C(CC[C@]12C)[C@@]1(C)CC[C@@H](NS(=O)(=O)c2ccccc2)CC1[C@@H](O)[C@@H]3O` (some centres unmarked) [Compound 134] is higher in “Calcium (% inhibition at 20 μM)” value: 16.3% for the first, 25.1% for the second.

First: CC=C1CCC2C3C(O)C(O)C4CC(NCCC)CCC4(C)C3CCC12C.Cl (centres unmarked) [Compound 114]
Second: CC=C1CCC2C3C(O)C(O)C4CC(NCCO)CCC4(C)C3CCC12C.Cl (centres unmarked) [Compound 122]
The “Calcium (% inhibition at 20 μM)” value of the first is higher: 37.9% for the first, 31.4% for the second.

Going from `CC=C1CCC2C3C(O)C(O)C4CC(NCCNCCC)CCC4(C)C3CCC12C.Cl.Cl` (centres unmarked) [Compound 119] to `CC=C1CCC2C3C(O)C(O)C4CC(NCCNCCO)CCC4(C)C3CCC12C.Cl.Cl` (centres unmarked) [Compound 124], the “Calcium (% inhibition at 20 μM)” value falls from 54.5% to 21.0%.

First: CC(=O)O.CC=C1CCC2C3C(O)C(O)C4CC(N5CCNCC5)CCC4(C)C3CCC12C (centres unmarked) [Compound 121]
Second: CC=C1CCC2C3C(O)C(O)C4CC(NCCCCCO)CCC4(C)C3CCC12C.Cl (centres unmarked) [Compound 123]
The “Calcium (% inhibition at 20 μM)” value of the first is higher: 42.4% for the first, 12.8% for the second.

Compared with `CC=C1CCC2C3C(O)C(O)C4CC(Nc5cccc(C)c5)CCC4(C)C3CCC12C.Cl` (centres unmarked) [Compound 125], `CC=C1CCC2C3C(O)C(O)C4CC(Nc5ccc(O)cc5)CCC4(C)C3CCC12C.Cl` (centres unmarked) [Compound 126] is higher in “Calcium (% inhibition at 20 μM)” value: 5.7% for the first, 45.0% for the second.

First: CC=C1CCC2C3C(O)C(O)C4CC(Nc5ccc(S(N)(=O)=O)cc5)CCC4(C)C3CCC12C.Cl (centres unmarked) [Compound 127]
Second: Cc1cccc(CNC2CCC3(C)C(C2)C(O)C(O)C2C4=C(CCC23)C(C)(C)CC4)c1.Cl (centres unmarked) [Compound 140]
The “Calcium (% inhibition at 20 μM)” value of the first is higher: 29.4% for the first, 21.5% for the second.

`COC1C(OC)C2CC(N)CCC2(C)C2CCC3=C(CCC3(C)C)C12.Cl` (centres unmarked) [Compound 148] was tested, and the “Calcium (% inhibition at 20 μM)” value was 6.6%.

Same assay, conditions: dose response activity examined

With `CC=C1CCC2C3C(O)C(O)C4CC(NCCNCCC)CCC4(C)C3CCC12C.Cl.Cl` (centres unmarked) [Compound 119] the IC50 was at most 10 µM.
